From patent publication US10688194B2, “Cell penetrating peptides for intracellular delivery of molecules” (AADIGEN, LLC, priority 2012, dated 2020)

Key:
Cyclic peptide (PC4) = test: Fluorescence titration, VEPEP-3/cargo binding: cyclic peptide; conditions: cargo: Cyclic peptide (PC4)
Procedure: (§1) Fluorescence experiments were performed on a PTI spectrofluorimeter at 25° C. in a NaCl 154 mM buffer. Intrinsic Trp-fluorescence of VEPEP-3 was excited at 290 nm and emission spectrum was recorded between 310 and 400 nm, with a spectral band-pass of 2 and 8 nm for excitation and emission, respectively. FITC-fluorescence of labelled-peptide was excited at 492 nm and emission recorded between 500 and 580 nm. For VEPEP-3/peptide interaction, 0.5 μM of FITC-labelled peptide was titrated by increasing concentrations of VEPEP-3. All measurements were corrected for the dilution and curve fitting were performed by using Grafit software (Erithacus).
(§2) VEPEP-3 peptide form stable complexes with peptides and proteins. The binding of cargos to VEPEP-3 was monitored by fluorescence spectroscopy using the […] intrinsic Trp groups of VEPEP-3 (3 to 5 Trp-residues) and extrinsic fluorescently labelled cargoes (using Cy3, Cy5 or FITC). Curve fitting reveal that VEPEP-3 strongly binds the different cargoes with dissociation constant in the nanomolar range (examples with VEPEP-3a, VEPEP-3C, and VEPEP-3g and three different cargoes are reported in FIGS. 1A-1C, all the data are reported in Table 1).

Peptide (C4 and C2) = test: Fluorescence titration, VEPEP-3/cargo binding: peptide
Procedure: as §1, §2

PNA (15 mer-PNA) = test: Fluorescence titration, VEPEP-3/cargo binding: PNA; conditions: cargo: 15 mer-PNA
Procedure: as §1
(§3) VEPEP-3 peptides also form stable particles with small aromatic molecules including Daunomycin, Paclitaxel, doxorubicin, porphyrin and charged molecules including nucleotide, nucleoside and peptide-analog of nucleic acids or fluorescent dyes (FIGS. 1A-1C). The dissociation constant for small hydrophobic molecule ranges between 0.05 to 2 μM, depending on the nature of the dyes and of the peptides.

[1] = Fluorescence titration, VEPEP-3/cargo binding: small hydrophobic molecule; conditions: cargo: Doxorubicine; for Kd: read-out: Kd, SHM
Procedure: as §1, §3

HeLa and U2OS cells = test: Toxicity of VEPEP-3 particles, MTT assay and cyclophilin mRNA level; conditions: complexed with short peptide and PNA at ratio 1/20
Procedure: Toxicity of VEPEP-3/peptide or VEPEP-3/protein complexes was investigated on Hela and HS-68 cell lines. 30,000 cells seeded in 24-well plated the day prior transfection, were incubated with increasing concentrations of peptide or protein complexed with VEPEP-3 at a 20/1 molar ratio ranging from 1 to 5 μM ([…]), for 30 min prior to addition of medium to reach a final 10% concentration of FCS. Cytotoxic response was measured 12 hr or 24 hr later by monitoring the housekeeping gene cyclophilin mRNA level (Quantigen, Panomic Inc.) and by colorimetric MTT assay (Sigma, Germany), respectively. For MTT assay, cell culture medium was removed and replaced with PBS containing 2.5 mg/ml of MTT for 4 hr. Results correspond to the average of 3 separate experiments.

protein (GFP & Nanobody) = test: Fluorescence titration, VEPEP-3/cargo binding: protein; conditions: cargo: protein (GFP & Nanobody)
Procedure: as §1, §2

| Substance | Binding, Cyclic peptide (Cyclic peptide (PC4)) | Binding, peptide (Peptide (C4 and C2)) | Kd (Peptide (C4 and C2)) | Binding, PNA (PNA (15 mer-PNA)) | Kd (PNA (15 mer-PNA)) | Binding, SHM [1] | Kd [1] | toxicity (HeLa and U2OS cells; levels up to 200 nM) | toxicity (HeLa and U2OS cells; maximum concentration of 1 μM) | Binding, Protein (protein (GFP & Nanobody)) | Kd (protein (GFP & Nanobody)) |
| --- | --- | --- | --- | --- | --- | --- | --- | --- | --- | --- | --- |
| X1KWWERWWREWPRKRK [VEPEP-3b] | yes | yes | 10 to 20 nM | Yes | 200 nM | Yes | 500 nM | No toxicity | mild toxicity | Yes | 500 nM |
| X1LWWRRWWSRWWPRWRR [VEPEP-3f] | yes | yes | 10 to 20 nM | Yes | – | Yes | 20 nM | No toxicity | mild toxicity | Yes | 20 to 100 nM |
| X1LWWSRWWRSWFRLWFR [VEPEP-3g] | yes | yes | 10 to 20 nM | Yes | – | Yes | 20 nM | No toxicity | mild toxicity | Yes | 20 to 100 nM |
| X1RWWEKWWTRWPRKRK [VEPEP-3c] | yes | yes | 10 to 20 nM | Yes | 200 nM | Yes | 200 nM | No toxicity | mild toxicity | Yes | 200 nM |
| X1RWWRLWWRSWFRLWRR [VEPEP-3e] | yes | yes | 10 to 20 nM | Yes | – | Yes | 20 nM | No toxicity | mild toxicity | Yes | 20 to 100 nM |
| X1RWYEKWYTEFPRRRR [VEPEP-3d] | yes | yes | 10 to 20 nM | Yes | 100 nM | Yes | 100 nM | No toxicity | mild toxicity | Yes | 100 nM |
